Reference: patent US20190209680A1, “TREATMENT OF ACUTE LIVER FAILURE” (The University of Birmingham, priority 2016, published 2019)

Tested on: carbon tetrachloride induced liver injury in CLEC1b fl/fl PF4cre mice
Test: Carbon tetrachloride injection in CLEC1b fl/fl PF4cre (KO) mice pre-treated with Etanercept
Format: in vivo, mouse
Settings: for Number of neutrophils per gram of liver tissue: 48 hours after carbon tetrachloride injection
Experimental: Kupffer cells isolated from WT mouse livers were plated in a tissue culture well, treated with lipopolysaccharide (LPS) and incubated with either platelets from CLEC2 deficient animals or WT platelets. (A) Production of TNF-alpha by Kupffer cells was measured in response to LPS plus either CLEC-2 deficient (KO) platelets or WT platelets (n=4 per group). (B) Isolated Kupffer cells (F480^+, shown in green), were incubated with either CLEC2 deficient or WT platelets (CD41^+, shown in purple). DAPI (blue) was used as a nuclear stain. Representative images (63× magnification) are shown. (C) Serum was isolated from WT and CLEC1b fl/fl PF4cre (KO) mice at 24 hours after carbon tetrachloride injection and serum TNF-alpha levels measured by ELISA. Levels are shown as picograms/ml (n=6/group) (*P<0.05, **P<0.01, ***P<0.001), (D) CLEC1b fl/fl PF4cre mice were pre-treated with an anti-TNF-alpha monoclonal antibody (Etanercept) before carbon tetrachloride injection (KO+AB). WT and CLEC1b fl/fl PF4cre mice not pre-treated before carbon tetrachloride injection were used as controls (WT and KO, accordingly). Mice were sacrificed 48 hours after the carbon tetrachloride injection. […]
Mouse livers were harvested after the animal was euthanized under deep sedation after cardiac puncture. […] The resulting immune cells were then purified using an Optiprep gradient (Sigma) and analysed by flow cytometry. […] Absolute cell counts were determined with AccuCheck Counting Beads (Invitrogen), and the number of cells was normalised to the total liver weight. Data were analysed using a CyAn ADP flow cytometer (Beckman Coulter) or a BD LSRII using Summit version 4.3 or FlowJo version 10.0.7 software where appropriate.
Serum was isolated from whole blood and levels of liver-specific enzymes AST and ALT were measured on a clinical autoanalyser, according to standard protocols in the Biochemistry Department at the Birmingham Women's Hospital, Birmingham, UK. […]

Etanercept
Number of neutrophils per gram of liver tissue (compared to CLEC1b fl/fl PF4cre mice not pre-treated with antibody (FIG. 3D)): substantially reduced
Number of neutrophils per gram of liver tissue (pre-treated KO mice relative to WT control (FIG. 3D)): comparable to WT control
Serum ALT levels (48 hours post carbon tetrachloride, compared to CLEC-2 deficient mice not given antibody (FIG. 3E)): considerably higher
